Reference: publication PMC9316063, “Chalcones as Anti-Glioblastoma Stem Cell Agent Alone or as Nanoparticle Formulation Using Carbon Dots as Nanocarrier” (Pharmaceutics, 2022)
Several values for one entry are separate records, joined by “and”; a condition that tells them apart may be missing. Identical values can stand only once. Like-named read-outs stand apart in the source and are kept apart here.

Experiments:
Assay type in all cases: cell-based, human
Glio38 [1] = test: MTS cell viability assay, GSC line Glio38; conditions: 72 h, read-out: Glio38 IC50
Description: (§1) The generation and characterization of our GSC lines (Glio3, Glio9, Glio38) have been previously described. In brief, following patient consent, the resected tumors were mechanically and enzymatically dissociated, and red blood cells were removed using Red Cell Lysis buffer (SigmaAldrich, St. Louis, MO, USA). Cells were filtered and plated in a 3:1 ratio of Dulbecco’s Modified Eagle’s medium (DMEM): F12 (Gibco, Carlsbad, CA, USA) media supplemented with 1% penicillin and streptomcycin (penn/strep), 20 ng/mL each of human epidermal growth factor and human fibroblast growth factor, and 2% Gem21 NeuroPlex Serum-Free Supplement (Gemini Bioscience, Sacramento, CA, USA); a formulation consistent for the generation of GBM stem cell lines. Both Glio3 and Glio38 were derived from tumors prior to drug or radiation therapy and grow as neurospheres, whereas Glio9 was derived from a recurrent tumor, following chemo and radiotherapy, and grows adherent. The GBM cell line U87 MG (U87), purchased from ATCC (Manassas, VA, USA) and the pediatric GBM cell line SJ-GBM2 was obtained from Children’s Oncology Group. SJ-GBM2 cell line was derived from a child with glioblastoma post therapy and is used as part of a National Cancer Institute pediatric pre-clinical testing program. Both lines were maintained in RPMI media supplemented with 10% FBS and 1% penn/strep. Mesenchymal stem cells (MSCs) originally derived from human bone marrow aspirates were obtained from Thermo Fisher Scientific and maintained in MEM alpha supplemented with 20% FBS and 1% penn/strep. Prior to drug treatment, MSCs were moved to media with 10% FBS. Upon receipt U87, SJ-GBM2 and MSCs were immediately expanded with several aliquots frozen down for future use. These cell lines are not listed on the most recent NCBI database for misidentification and contamination of human cell lines. All cell lines were routinely tested for mycoplasma using LookOut mycoplasma PCR detection kit (Sigma-Aldrich, St. Louis, MO, USA) according to the manufacturer’s instructions and were maintained at 37 °C in a humidified 5% CO2 incubator.
(§2) The chalcones were dissolved in dimethyl sulfoxide (DMSO) at a concentration of 10 mM, vortexed and subsequently diluted to obtain 1 mM and 0.1 mM stock concentrations. C-dot-trans-chalcones were resuspended in supplement-free media (3:1 ratio DMEM/F12 for GSC experiments or RPMI for non-stem cell line experiments). Cell viability in response to drug treatment was determined using CellTiter 96 AQueous One Solution Cell Proliferation Assay, a colorimetric MTS assay kit (Promega, Madison, WI, USA). The GSCs were seeded into 96-well plates using modified neurosphere media containing 5% FBS at a density of 10,000 cells per well. MSCs and U87 cells were plated at 5000 cells/well while SJ-GBM2 cells were plated at 10,000 cells/well. The next day cells were treated with increasing concentrations of chalcones or C-dot-chalcone conjugate. Next, 72 h later, media was aspirated and 100 μL of a 1:5 solution of MTS to cell culture media was added to each well and incubated for 1–4 h. Optical density was measured at 490 nm using BioTek Synergy HT plate reader. Viability of drug treated cells is expressed as the percent viable cells relative to non-treated cells (100% viability). Experiments were done in triplicate.

Glio9 = test: MTS cell viability assay, GSC line Glio9; conditions: 72 h, read-out: Glio9 IC50
Description: as §1, §2

Glio3 [2] = test: MTS cell viability assay, GSC line Glio3; conditions: 72 h, read-out: Glio3 IC50
Description: as §1, §2

[3] = tested on: GSC lines Glio3, Glio9 and Glio38; test: MTS cell viability assay, all three GSC lines together; conditions: for IC50: 72 h; for activity against GSCs: at the concentrations tested
Description: as §1, §2

[4] = tested on: mesenchymal stem cells (MSC); test: MTS cell viability assay, mesenchymal stem cells; conditions: 72 h, estimated, >>10 indicates no cell death observed at any of the concentrations tested
Description: as §1, §2

U87 = test: MTS cell viability assay, U87; conditions: 72 h
Description: The generation and characterization of our GSC lines (Glio3, Glio9, Glio38) have been previously described. In brief, following patient consent, the resected tumors were mechanically and enzymatically dissociated, and red blood cells were removed using Red Cell Lysis buffer (SigmaAldrich, St. Louis, MO, USA). Cells were filtered and plated in a 3:1 ratio of Dulbecco’s Modified Eagle’s medium (DMEM): F12 (Gibco, Carlsbad, CA, USA) media supplemented with 1% penicillin and streptomcycin (penn/strep), 20 ng/mL each of human epidermal growth factor and human fibroblast growth factor, and 2% Gem21 NeuroPlex Serum-Free Supplement (Gemini Bioscience, Sacramento, CA, USA); a formulation consistent for the generation of GBM stem cell lines. […]
The chalcones were dissolved in dimethyl sulfoxide (DMSO) at a concentration of 10 mM, vortexed and subsequently diluted to obtain 1 mM and 0.1 mM stock concentrations. […] Cell viability in response to drug treatment was determined using CellTiter 96 AQueous One Solution Cell Proliferation Assay, a colorimetric MTS assay kit (Promega, Madison, WI, USA). […] Optical density was measured at 490 nm using BioTek Synergy HT plate reader. Viability of drug treated cells is expressed as the percent viable cells relative to non-treated cells (100% viability). […]

Glio38 [5] = test: Sphere forming assay, Glio38; conditions: 100 nM alone, vs non-treated controls
Experimental: (§3) The effect of chalcones’ clonogenic growth potential was determined using sphere-forming assays. Glio3 and Glio38 neurosphere cell lines were dissociated using Accutase (Gemini Bioscience, Sacramento, CA, USA), filtered using 40-micron filter and single cells were seeded at approximately 50 cells per well in a 96-well plate. Cells were treated with 0.1, 0.25 or 0.5 μM of chalcone or 0.01, 0.05 or 0.1 μM of C-dot chalcone conjugate on day 0 and spheres were manually counted under microscopy on day 14. All experiments were done in triplicate. Representative images were obtained using EVOS XL Core light microscope (Thermo Fisher Scientific, Waltham, MA, USA).

Glio3 [6] = test: Sphere forming assay, Glio3; conditions: 100 nM alone, vs non-treated controls
Experimental: as §3

[7] = average of Glio3, Glio9, Glio38, read-out: average IC50 across the 3 GSC lines
[8] = Homo sapiens, in all three GSC lines, read-out: IC50 in all GSC lines (bound stated in text)
[9] = Homo sapiens, Mesenchymal stem cells
[10] = Homo sapiens, average of Glio3, Glio9, Glio38, read-out: average IC50 across the 3 GSC lines

Row | Molecule | IC50 (Glio38 [1]; Homo sapiens, MTS, ±SEM) | IC50 (Glio9; Homo sapiens, MTS, ±SEM) | IC50 (Glio3 [2]; Homo sapiens, MTS, ±SEM) | IC50 [3, 8] | IC50 [4, 9] | activity against GSCs [3] | also measured
1 | 3,4,5-trimethoxy chalcone [Chalcone 3e] | – | – | – | – | – | – | IC50 (Glio38 [1]; MTS, ±SEM): 9.2 ± 0.8 µM; IC50 (Glio9; MTS, ±SEM): 8.9 ± 1.6 µM; IC50 (Glio3 [2]; MTS, ±SEM): 10.9 ± 0.8 µM; IC50 [3, 7]: < 10 µM and 9.7 µM; IC50 ([3]; in all three GSC lines, read-out: IC50 in all GSC lines (bound stated in text)): < 15 µM; IC50 [4]: 46.7 µM; IC50 ([4]; listed as 4′-amino-trimethoxy chalcone): ~50 µM
2 | 3,5-dimethoxy chalcone [Chalcone 3f] | – | – | – | – | – | – | IC50 (Glio38 [1]; MTS, ±SEM): 6.5 ± 0.9 µM; IC50 (Glio9; MTS, ±SEM): 9.7 ± 2 µM; IC50 (U87): 8.5 ± 0.04 µM; IC50 (Glio3 [2]; MTS, ±SEM): 7.8 ± 0.9 µM; IC50 [3, 7]: 8.2 ± 0.8 µM; IC50 [4]: 74.8 µM
3 | COc1ccc(/C=C/C(=O)c2ccc(N)cc2)cc1OC [Chalcone 3b] | > 10 µM | > 10 µM | > 10 µM | – | – | – | –
4 | COc1ccc(OC)c(/C=C/C(=O)c2ccc(N)cc2)c1 [Chalcone 3c] | 10.4 ± 2 µM | 9.3 ± 0.6 µM | 12 ± 1.8 µM | < 15 µM | > 10 µM | – | –
5 | COc1ccc(OC)c(/C=C/C(=O)c2ccc(NC(C)=O)cc2)c1 [Chalcone 3d] | 7.9 ± 1.7 µM | 5.5 ± 1.1 µM | 6.9 ± 1.6 µM | < 10 µM | 16.8 µM | active | –
6 | COc1cc(/C=C/C(=O)c2ccc(NC(C)=O)cc2)cc(OC)c1 [Chalcone 3g] | 5.4 ± 0.6 µM | 4.8 ± 0.6 µM | 6.2 ± 1.3 µM | < 10 µM | 7.4 µM | active | –
7 | COCOc1ccc(C=CC(=O)c2ccc(N)cc2)cc1OC [Chalcone 3h] | > 10 µM | > 10 µM | > 10 µM | – | – | not active at concentrations tested | –
8 | Nc1ccc(C(=O)/C=C/c2ccc(O)cc2)cc1 [Chalcone 3i] | – | – | – | – | – | not active at concentrations tested | IC50 (Glio38 [1]; Homo sapiens): > 10 µM; IC50 (Glio9; Homo sapiens): > 10 µM; IC50 (Glio3 [2]; Homo sapiens): > 10 µM
9 | CCOc1cc(C=CC(=O)c2ccc(N)cc2)ccc1O [Chalcone 3j] | > 10 µM | > 10 µM | > 10 µM | – | – | not active at concentrations tested | –
10 | COc1cc(/C=C/C(=O)c2ccc(N)cc2)cc(OC)c1O [Chalcone 3k] | > 10 µM | > 10 µM | > 10 µM | – | – | not active at concentrations tested | activity against GSCs ([3]; listed as 4k): eliminates activity
11 | COc1cc(/C=C/C(=O)c2ccc(N)cc2)ccc1O [Chalcone 3l] | > 10 µM | > 10 µM | > 10 µM | – | – | – | –
12 | Nc1ccc(C(=O)C=Cc2ccc(N3CCOCC3)cc2)cc1 [Chalcone 3m] | > 10 µM | > 10 µM | > 10 µM | – | – | neither the morpholino or the methoxymethoxy derivatives were active against GSCs | –
13 | CN(C)c1ccc(/C=C/C(=O)c2ccc(N)cc2)cc1 [Chalcone 3n] | > 10 µM | > 10 µM | > 10 µM | – | – | inactive at the concentrations tested | –
14 | Nc1ccc(C(=O)/C=C/c2ccccn2)cc1 [Chalcone 3p] | 6.4 ± 2 µM | 5.2 ± 0.5 µM | 6.6 ± 1.2 µM | < 10 µM | 8 µM | – | IC50 [3, 10]: 6.1 ± 0.4 µM
15 | Nc1ccc(C(=O)/C=C/c2ccccn2)cc1 [Chalcone 3q] | – | – | – | – | – | – | IC50 (Glio38 [1]; MTS, ±SEM): 6.6 ± 0.7 µM; IC50 (Glio9; MTS, ±SEM): 6.6 ± 0.5 µM; IC50 (Glio3 [2]; MTS, ±SEM): 8.3 ± 0.7 µM; IC50 [3, 7]: 7.2 ± 0.5 µM; IC50 [4]: > 10 µM
16 | Nc1ccc(C(=O)/C=C/c2ccco2)cc1 [Chalcone 3r] | > 10 µM | > 10 µM | > 10 µM | – | – | – | –
17 | Nc1ccc(C(=O)/C=C/c2ccoc2)cc1 [Chalcone 3s] | > 10 µM | > 10 µM | > 10 µM | – | – | – | –
18 | Nc1ccc(C(=O)/C=C/c2c[nH]c3ccccc23)cc1 [Chalcone 3t] | > 10 µM | > 10 µM | > 10 µM | – | – | – | –
19 | Nc1ccc(C(=O)/C=C/c2cccc(F)c2)cc1 [Chalcone 3u] | 8.8 ± 1.4 µM | 7.2 ± 0.6 µM | 9.9 ± 0.3 µM | < 10 µM | 15.6 µM | – | IC50 [3, 10]: 8.6 µM
20 | Nc1ccc(C(=O)/C=C/c2cccc(Cl)c2)cc1 [Chalcone 3v] | 6.7 ± 0.6 µM | 5.8 ± 0.9 µM | 9.1 ± 0.6 µM | < 10 µM | 25.7 µM | – | IC50 [3, 10]: 7.2 µM
21 | Nc1ccc(C(=O)/C=C/c2ccc(Cl)cc2)cc1 [Chalcone 3w] | 7.9 ± 0.6 µM | 7 ± 0.3 µM | 12.3 ± 1.1 µM | < 15 µM | 80.1 µM | – | IC50 [3, 10]: 9.1 µM
22 | Nc1ccc(C(=O)/C=C/c2cccc(Br)c2)cc1 [Chalcone 3x] | 5.9 ± 0.8 µM | 7 ± 0.5 µM | 9.3 ± 1.1 µM | < 10 µM | 28.1 µM | – | IC50 [3, 10]: 7.4 µM
23 | COc1cccc(/C=C/C(=O)c2ccc(O)cc2)c1OC [Chalcone 4a] | 9.1 ± 0.7 µM | 14.2 ± 3 µM | 11.4 ± 0.9 µM | – | > 10 µM | – | –
24 | COc1cc(/C=C/C(=O)c2ccc(O)cc2)cc(OC)c1 [Chalcone 4b] | 6.4 ± 0.4 µM | 7 ± 0.4 µM | 6.7 ± 0.2 µM | < 10 µM | 17.1 µM | – | –
25 | COc1cc(/C=C/C(=O)c2ccc(OC(C)=O)cc2)cc(OC)c1OC [Chalcone 4d] | 6.9 ± 0.3 µM | 6.2 ± 0.9 µM | 7.7 ± 0.4 µM | < 10 µM | > 10 µM | – | –
26 | COC(=O)COc1ccc(C(=O)/C=C/c2cc(OC)c(OC)c(OC)c2)cc1 [Chalcone 4e] | 18.4 µM | 7 ± 1.3 µM | 10.4 ± 1.4 µM | – | – | active | –
27 | COc1cc(/C=C/C(=O)c2ccc(OCC(=O)O)cc2)cc(OC)c1OC [Chalcone 4f] | > 10 µM | > 10 µM | > 10 µM | – | – | active | –
28 | COc1cc(/C=C/C(=O)c2cccc(N)c2)cc(OC)c1OC [Chalcone 5a, 3′-Amino-3,4,5-trimethoxychalcone] | 5 ± 0.8 µM | 5.1 ± 0.6 µM | 8 ± 1.5 µM | – | 5.5 µM | – | –
29 | transferrin: transferrin alone, targeting ligand used in the conjugates | – | – | – | – | – | – | neurosphere formation (Glio38 [5]): neither c-dots or transferrin alone significantly reduced neurosphere formation; neurosphere formation (Glio3 [6]): neither c-dots or transferrin alone significantly reduced neurosphere formation
